# From US20260373165A1, “PHARMACEUTICAL COMBINATIONS AND COMPOSITIONS, AND METHODS OF USE THEREOF” (SHENZHEN HIGHTIDE BIOPHARMACEUTICAL LTD., priority 2022, published 2026)
# Tests used:
# Assay type in all cases: in vivo, mouse (C57BL/6J male, 60% HFD DIO)
# [1] = Example 2: body weight and body weight change rate, combined administration of HTD1801 and dapagliflozin or empagliflozin in DIO obesity model; conditions: for Body weight (mean) / Body weight change rate: HTD1801 250 mpk, dapagliflozin 10 mpk, empagliflozin 15 mpk p.o. QD, semaglutide 10 nmol/kg s.c. Q3D
# Text: (§1) After 5-6-week-old C57BL/6J male mice were acclimatized for 1 week, the weight of each mouse was weighed, and the mice were randomly divided into a control group and a model group by taking the weight as a main index, where 12 mice in the control group were fed with common feed (CD), and the mice in the remaining model group were fed with 60% high-fat feed (60% HFD) for 10-12 weeks to construct a DIO obesity model, with the average body weight being not less than 40 g. The mice fed with 60% HFD were grabbed and acclimatized with a solvent for 3 days, where the acclimatization with a solvent was performed by oral gavage of 0.5% CMC-Na, once daily.
# (§2) The food intake, the body weight, the body fat ratio, and the insulin level of the mice were respectively measured, followed by fasting blood glucose level, and the mice were randomly grouped according to Table 12 by taking the body weight as an index, and the remaining ungrouped mice were euthanized. After grouping, each group of mice was administered according to Table 12, the day of administration was defined as DO, and the administration volume of each drug was determined based on the results obtained by the calculation of 5 μL/g× mouse body weight (g).
# (§3) For the combined administration group, the administration sequence and the administration time were kept consistent at each administration. The mice were continuously fed with high-fat feed during the administration period until the administration was finished. During administration, 1 food intake was measured per week (difference in feed weights at an interval of 24 h was measured); each group of mice was weighed once daily; blood was collected from the tail tip on day 16 and day 30, respectively, so as to measure fasting blood glucose levels once (blood was collected after fasting from 9:00 am to 3:[…]); on day 24 of administration (D23), the body fat ratio and the lean mass of each group of mice were measured by MRI (the measurement period was kept consistent with that before grouping); after 25 days of administration intervention (day 24), each group of mice was fasted for 6 h and subjected to OGTT (0 min, 15 min, 30 min, 60 min, 90 min, 120 min) to detect their blood glucose levels; after 29 days of administration intervention (day 28), each group of mice was fasted for 6 h and subjected to OGTT (0 min, 15 min, 30 min, 60 min, 90 min, 120 min), and meanwhile subjected to blood sampling via submaxillary vein (0 min, 15 min, 30 min, about 30 μL of blood sampled each time), and then the blood plasma was separated for detecting the insulin level by ELISA, where the separated blood plasma was more than 10 μL; the next day (D30) at the end of administration was set as the test endpoint, and the mice were fasted for 6 h in the morning and subjected to fasting blood glucose level measurement; subsequently, the mice were euthanized with CO2, blood was collected from the heart of each mouse for analysis, and each group of mice was dissected; the liver and subcutaneous, epididymal and mesenteric fat was collected, photographed and weighed, respectively.
# [2] = Example 2: body fat mass by MRI on day 23
# Text: as §1, §2, §3
# The body weight, the body fat mass and the body fat ratio of each animal in groups G1 to G8 were measured on day 23 and averaged for each group, and the results are shown in Table 15 below, and FIGS. 21 and 22.
# [3] = Example 2: lean mass by MRI on day 23
# Text: as §1, §2, §3
# The body weight, the lean mass and the lean ratio of each animal in groups G1 to G8 were measured on day 23 and averaged for each group, and the results are shown in Table 16 below, and FIGS. 23 and 24.
# [4] = mean, day 23, HTD1801 250 mpk, dapagliflozin 10 mpk, empagliflozin 15 mpk p.o. QD
smiles,measurement,setting,value
"CCOc1ccc(Cc2cc([C@@H]3O[C@H](CO)[C@@H](O)[C@H](O)[C@H]3O)ccc2Cl)cc1 [Dapagliflozin, dapagliflozin]",body weight decrease,[1]; dapagliflozin 10 mpk p.o. QD,3.4%
same,Body weight (mean),[1]; day 0 (baseline),45.4 g
same,Body weight change rate,[1]; day 0 (baseline),0.0%
same,Body weight (mean),[1]; day 1,45.5 g
same,Body weight change rate,[1]; day 1,0.3%
same,Body weight (mean),[1]; day 2,45.3 g
same,Body weight change rate,[1]; day 2,−0.1%
same,Body weight (mean),[1]; day 3,45.1 g
same,Body weight change rate,[1]; day 3,−0.6%
same,Body weight (mean),[1]; day 4,44.8 g
same,Body weight change rate,[1]; day 4,−1.2%
same,Body weight (mean),[1]; day 5,44.3 g
same,Body weight change rate,[1]; day 5,−2.4%
same,Body weight (mean),[1]; day 6,44.1 g
same,Body weight change rate,[1]; day 6,−2.7%
same,Body weight (mean),[1]; day 7,44.0 g
same,Body weight change rate,[1]; day 7,−2.9%
same,Body weight (mean),[1]; day 8,43.7 g
same,Body weight change rate,[1]; day 8,−3.7%
same,Body weight (mean),[1]; day 9,43.4 g
same,Body weight change rate,[1]; day 9,−4.4%
same,Body weight (mean),[1]; day 10,43.5 g
same,Body weight change rate,[1]; day 10,−4.2%
same,Body weight (mean),[1]; day 11,43.2 g
same,Body weight change rate,[1]; day 11,−4.7%
same,Body weight (mean),[1]; day 12,43.1 g
same,Body weight change rate,[1]; day 12,−4.9%
same,Body weight (mean),[1]; day 13,42.6 g
same,Body weight change rate,[1]; day 13,−6.1%
same,Body weight (mean),[1]; day 14,42.7 g
same,Body weight change rate,[1]; day 14,−6.0%
same,Body weight (mean),[1]; day 15,42.9 g
same,Body weight change rate,[1]; day 15,−5.5%
same,Body weight (mean),[1]; day 16,42.8 g
same,Body weight change rate,[1]; day 16,−5.7%
same,Body weight (mean),[1]; day 17,43.2 g
same,Body weight change rate,[1]; day 17,−4.7%
same,Body weight (mean),[1]; day 18,43.3 g
same,Body weight change rate,[1]; day 18,−4.5%
same,Body weight (mean),[1]; day 19,43.5 g
same,Body weight change rate,[1]; day 19,−4.2%
same,Body weight (mean),[1]; day 20,43.5 g
same,Body weight change rate,[1]; day 20,−4.1%
same,Body weight (mean),[1]; day 21,43.9 g
same,Body weight change rate,[1]; day 21,−3.3%
same,Body weight (mean),[1]; day 22,43.9 g
same,Body weight change rate,[1]; day 22,−3.3%
same,Body weight (mean),[1]; day 23,43.8 g
same,Body weight change rate,[1]; day 23,−3.5%
same,Body weight (mean),[1]; day 24,43.5 g
same,Body weight change rate,[1]; day 24,−4.2%
same,Body weight (mean),[1]; day 25,43.9 g
same,Body weight change rate,[1]; day 25,−3.2%
same,Body weight (mean),[1]; day 26,44.2 g
same,Body weight change rate,[1]; day 26,−2.5%
same,Body weight (mean),[1]; day 27,44.3 g
same,Body weight change rate,[1]; day 27,−2.4%
same,Body weight (mean),[1]; day 28,43.9 g
same,Body weight change rate,[1]; day 28,−3.2%
same,Body weight (mean),[1]; day 29,43.8 g
same,Body weight change rate,[1]; day 29,−3.4%
same,increase of body fat relative to control group G2,[2]; day 23,about 8.6%
same,body fat mass and body fat ratio (in words),"[2]; day 23, relative to control group G2",increased
same,Body weight,"[2]; mean, day 23 (Table 15), HTD1801 250 mpk, dapagliflozin 10 mpk, empagliflozin 15 mpk p.o. QD",43.8 g
same,Body fat ratio,[2]; [4],48.8%
same,Fat (body fat mass),[2]; [4],21.4 g
same,lean ratio (in words),"[3]; day 23, relative to model control group G2",slightly decreased
same,Body weight,"[3]; mean, day 23 (Table 16), HTD1801 250 mpk, dapagliflozin 10 mpk, empagliflozin 15 mpk p.o. QD",43.8 g
same,Lean (lean mass),[3]; [4],4.3 g
same,Lean ratio,[3]; [4],9.9%
